Source: publication PMC4965473 (Frontiers in Physiology, 2016)
Entries after “also recorded” stand apart in the source; their conditions may differ. Structures can show the parent of a compound that is named as a salt.

Key:
wt M2TMD21−49 [1] = test system: wt M2TMD21−49; parameters: species or system influenza A; details: pH 5.5
M2TMD21−49 [2] = biological target: T1, M2TMD21−49 (Influenza A virus, UniProt P0DOF5, L46C); type: binding; details: pH 5.5
wt M2TMD21−49 [3] = test system: wt M2TMD21−49; parameters: species or system influenza A; details: pH 5.5; remark: listed apart in the source
[4] = test system: G34A mutant of M2TMD21−49; parameters: species or system influenza A; details: pH 5.5
M2TMD21−49 [5] = biological target: T1, M2TMD21−49

**Q.** With `NC12CC3CC(CC(C3)C1)C2` [amantadine, amantadine hydrochloride] as the compound, how does the “maximum increase in DEER modulation depth upon binding of amantadine” value (wt M2TMD21−49 [1]) read?
**A.** 23–30%

**Q.** And the “reduction of k4d in the presence of amantadine” value (M2TMD21−49 [2])?
**A.** 10 -fold

**Q.** And the “narrowing of Gaussian widths (σ) in the presence of amantadine” value (wt M2TMD21−49 [3])?
**A.** ca. 2 Å

**Q.** What about the “r1, Gaussian mean (proximal distance)” value (wt M2TMD21−49 [3]) of the same compound?
**A.** 20.8 Å

**Q.** What about the “r2, Gaussian mean (lateral distance)” value (wt M2TMD21−49 [3]) of the same compound?
**A.** 29 Å

**Q.** What about the “shortening of inter-spin distances upon binding of amantadine” value (wt M2TMD21−49 [3]) of the same compound?
**A.** 5–8 Å

**Q.** And the “effect of amantadine on C-terminal conformation / inter-spin distances of G34A mutant” value [4]?
**A.** marginal if any effect on M2TMD C-terminal conformation; also recorded: Inter-spin distances do not change upon the addition of amantadine

**Q.** And the “oligomeric species seen in EM micrographs” value (M2TMD21−49 [5])?
**A.** monomers, dimers, and tetramers
